Biological target: T1, PLCγ1^wt (Homo sapiens, UniProt P19174, I813T)
T1 construct: specific activities of PLCγ1^wt and PLCγ2^wt full-length proteins; made in house; host or cells: Escherichia coli T7 Express lysY/Iq
T1 sequence (P19174 1-1291 isoform P19174-2 I813T): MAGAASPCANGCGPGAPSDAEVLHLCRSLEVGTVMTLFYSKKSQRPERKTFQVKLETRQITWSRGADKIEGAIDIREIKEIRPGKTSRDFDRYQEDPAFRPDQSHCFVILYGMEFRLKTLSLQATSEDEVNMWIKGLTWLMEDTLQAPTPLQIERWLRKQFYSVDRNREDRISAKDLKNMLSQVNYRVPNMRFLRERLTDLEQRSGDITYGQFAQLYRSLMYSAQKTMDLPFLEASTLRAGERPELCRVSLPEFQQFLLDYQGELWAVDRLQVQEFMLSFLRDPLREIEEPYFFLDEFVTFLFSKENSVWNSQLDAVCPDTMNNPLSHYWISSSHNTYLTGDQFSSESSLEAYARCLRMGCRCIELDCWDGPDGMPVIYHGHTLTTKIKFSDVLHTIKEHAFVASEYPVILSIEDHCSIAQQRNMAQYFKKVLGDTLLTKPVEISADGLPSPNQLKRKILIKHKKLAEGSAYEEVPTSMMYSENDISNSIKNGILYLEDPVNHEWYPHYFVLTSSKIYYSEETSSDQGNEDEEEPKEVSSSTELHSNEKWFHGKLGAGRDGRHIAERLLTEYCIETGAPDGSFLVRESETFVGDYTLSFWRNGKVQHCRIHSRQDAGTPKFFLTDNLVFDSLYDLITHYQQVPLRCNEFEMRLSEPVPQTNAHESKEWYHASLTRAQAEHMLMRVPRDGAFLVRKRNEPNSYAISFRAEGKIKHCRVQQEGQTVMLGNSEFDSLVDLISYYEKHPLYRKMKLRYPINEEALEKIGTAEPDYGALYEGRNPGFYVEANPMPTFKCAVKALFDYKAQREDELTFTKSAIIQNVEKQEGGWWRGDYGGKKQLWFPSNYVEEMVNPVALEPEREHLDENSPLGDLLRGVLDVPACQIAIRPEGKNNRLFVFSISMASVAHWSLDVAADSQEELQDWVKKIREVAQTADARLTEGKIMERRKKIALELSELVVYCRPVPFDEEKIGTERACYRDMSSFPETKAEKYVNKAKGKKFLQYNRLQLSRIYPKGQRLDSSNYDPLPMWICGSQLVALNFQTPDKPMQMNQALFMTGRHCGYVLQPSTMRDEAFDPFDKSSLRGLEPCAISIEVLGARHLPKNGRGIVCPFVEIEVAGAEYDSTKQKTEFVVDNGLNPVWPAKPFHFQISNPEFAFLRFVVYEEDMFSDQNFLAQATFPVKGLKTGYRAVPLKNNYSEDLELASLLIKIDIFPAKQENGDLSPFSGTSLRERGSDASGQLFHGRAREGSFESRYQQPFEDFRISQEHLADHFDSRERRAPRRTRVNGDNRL
Test: Saturation transfer difference (STD) NMR binding
Conditions: STD amplification factor vs ADP concentration; likely an overestimate; read-out: Kd, STD-NMR, H2 resonance
Experimental: Protein was buffer exchanged into phosphate buffered saline (pH 7.5) prepared in deuterium oxide. A 10 mM stock of ultrapure ADP was purchased from Promega. NMR spectra were acquired at 293 K in a Bruker Avance Neo 600 MHz spectrometer equipped with QCI-F cryoprobe and operating Topspin 4.2. Saturation transfer difference NMR experiments (stddiffesgp.3) were acquired with 2 s saturation at 0.75 and 50 ppm using 50 ms Gaussian pulses. For the determination of Kd, ADP was added to the protein at ligand excesses from 5- to 100-fold. The protein concentration was 10 µM. STD amplification factors, AF=L0/P0⋅Iref−Isat/Iref , were measured and fitted to a hyperbolic dose-response model to determine the dissociation constant for the protein/ADP interaction.

Kd: ~196 µM
SMILES: Nc1ncnc2c1ncn2[C@@H]1O[C@H](COP(=O)(O)OP(=O)(O)O)[C@@H](O)[C@H]1O [ADP]

— PMC12687421, “Characterisation of an allosteric site in PLCγ enzymes and implications for development of their specific inhibitors” (Biochemical Journal, 2025)
